Columns and labels:
Format in all cases: in vivo
[1] = tested on: Alopecurus myosuroides (ALOMY); test: Pre-emergence herbicidal activity (B1); conditions: Test 1b; pre-emergence application; rate 1000 g/ha; evaluated after 13 days; score 0-5
Method: (§1) Seeds of a variety of test species were sown in standard soil in pots: Triticum aestivium (TRZAW), Avena fatua (AVEFA), Alopecurus myosuroides (ALOMY), Echinochloa crus-galli (ECHCG), Lolium perenne (LOLPE), Zea Mays (ZEAMX), Abutilon theophrasti (ABUTH), Amaranthus retroflexus (AMARE) and Setaria faberi (SETFA). […] The test plants were then grown in a glasshouse under controlled conditions (at 24/16° C., day/night; 14 hours light; 65% humidity) and watered twice daily. After 13 days, the test was evaluated (5=total damage to plant; 0=no damage to plant).

Avena fatua (AVEFA) [2] = test: Pre-emergence herbicidal activity (B1); conditions: Test 1b; pre-emergence application; rate 1000 g/ha; evaluated after 13 days; score 0-5
Method: as §1

[3] = tested on: Echinochloa crus-galli (ECHCG); test: Pre-emergence herbicidal activity (B1); conditions: Test 1b; pre-emergence application; rate 1000 g/ha; evaluated after 13 days; score 0-5
Method: as §1

Lolium perenne (LOLPE) [4] = test: Pre-emergence herbicidal activity (B1); conditions: Test 1b; pre-emergence application; rate 1000 g/ha; evaluated after 13 days; score 0-5
Method: as §1

Setaria faberi (SETFA) [5] = test: Pre-emergence herbicidal activity (B1); conditions: Test 1b; pre-emergence application; rate 1000 g/ha; evaluated after 13 days; score 0-5
Method: as §1

[6] = tested on: Triticum aestivium (TRZAW); test: Pre-emergence herbicidal activity (B1); conditions: Test 1b; pre-emergence application; rate 1000 g/ha; evaluated after 13 days; score 0-5
Method: as §1

[7] = tested on: Alopecurus myosuroides (ALOMY); test: Post-emergence herbicidal activity (B2); conditions: Test B2b; post-emergence application; rate 1000 g/ha; evaluated after 13 days; score 0-5
Method: as §1

Avena fatua (AVEFA) [8] = test: Post-emergence herbicidal activity (B2); conditions: Test B2b; post-emergence application; rate 1000 g/ha; evaluated after 13 days; score 0-5
Method: as §1

[9] = tested on: Echinochloa crus-galli (ECHCG); test: Post-emergence herbicidal activity (B2); conditions: Test B2b; post-emergence application; rate 1000 g/ha; evaluated after 13 days; score 0-5
Method: as §1

Lolium perenne (LOLPE) [10] = test: Post-emergence herbicidal activity (B2); conditions: Test B2b; post-emergence application; rate 1000 g/ha; evaluated after 13 days; score 0-5
Method: as §1

Setaria faberi (SETFA) [11] = test: Post-emergence herbicidal activity (B2); conditions: Test B2b; post-emergence application; rate 1000 g/ha; evaluated after 13 days; score 0-5
Method: as §1

[12] = tested on: Triticum aestivium (TRZAW); test: Post-emergence herbicidal activity (B2); conditions: Test B2b; post-emergence application; rate 1000 g/ha; evaluated after 13 days; score 0-5
Method: as §1

SMILES | damage to plant, ALOMY [1] | damage to plant, AVEFA (Avena fatua (AVEFA) [2]) | damage to plant, ECHCG [3] | damage to plant, LOLPE (Lolium perenne (LOLPE) [4]) | damage to plant, SETFA (Setaria faberi (SETFA) [5]) | damage to plant, TRAZW [6] | damage to plant, ALOMY [7] | damage to plant, AVEFA (Avena fatua (AVEFA) [8]) | damage to plant, ECHCG [9] | damage to plant, LOLPE (Lolium perenne (LOLPE) [10]) | damage to plant, SETFA (Setaria faberi (SETFA) [11]) | damage to plant, TRAZW [12]
CCOC(=O)c1nc(-c2cncnc2)cnc1N [Compound G2] | 0 | 0 | 0 | 0 | 2 | 0 | 1 | 1 | 1 | 1 | 3 | 0
Nc1ncc(-c2cncc(F)c2)nc1C(F)(F)F [Compound G3, 2-amino-3-trifluoromethyl-5-(5-fluoropyrid-3-yl) pyrazine] | 1 | 1 | 3 | 0 | 4 | 1 | 0 | 3 | 4 | 2 | 3 | 0
Cc1nc(-c2cncc(F)c2)cnc1N [Compound G4] | 0 | 1 | 1 | 0 | 1 | 0 | 0 | 1 | 2 | 0 | 3 | 0
COc1nc(-c2cncc(F)c2)cnc1N [Compound G5] | 0 | 0 | 1 | 0 | 1 | 0 | 1 | 1 | 2 | 0 | 3 | 0
Nc1ncc(-c2cncnc2)nc1C(F)(F)F [Compound G6] | 0 | 1 | 1 | 0 | 2 | 0 | 0 | 1 | 3 | 1 | 3 | 0
N#Cc1nc(-c2cncc(F)c2)cnc1N [Compound G7] | 0 | 0 | 1 | 0 | 1 | 0 | 0 | 1 | 3 | 0 | 2 | 0
Nc1ncc(-c2cncc(F)c2)nc1Br [Compound G8, 2-amino-3-bromo-5-(5-fluoropyrid-3-yl)pyrazine] | 0 | 0 | 0 | 0 | 0 | 0 | 0 | 0 | 2 | 0 | 1 | 0
Nc1ncc(-c2cncnc2)nc1OCc1ccccc1 [Compound G10] | 0 | 0 | 0 | 0 | 0 | 0 | 0 | 0 | 1 | 0 | 1 | 0
Nc1ncc(-c2cncc(F)c2)nc1OCc1ccccc1 [Compound G11] | 0 | 0 | 0 | 0 | 0 | 0 | 0 | 1 | 1 | 0 | 1 | 0
OCNc1ncc(-c2cncc(F)c2)nc1C(F)(F)F [Compound G12, 2-hydroxymethylamino-3-trifluoromethyl-5-(5-fluoropyrid-3-yl)pyrazine] | 0 | 1 | 3 | 0 | 5 | 0 | 0 | 5 | 2 | 0 | 3 | 0
Cc1nc(-c2cncc(F)c2)cnc1N(C)C [Compound G13, 2-dimethylamino-3-methyl-5-(5-fluoropyrid-3-yl)pyrazine] | 0 | 0 | 0 | 0 | 1 | 0 | 0 | 1 | 1 | 0 | 3 | 0
C=C(C)c1nc(-c2cncc(F)c2)cnc1N [Compound G14, 5-(5-fluoro-3-pyridyl)-3-isopropenyl-pyrazin-2-amine] | 0 | 0 | 1 | 0 | 2 | 0 | 0 | 1 | 1 | 1 | 4 | 0
CC(C)c1nc(-c2cncc(F)c2)cnc1N [Compound G15, 2-amino-3-(prop-2-yl)-5-(5-fluoropyrid-3-yl)pyrazine] | 0 | 0 | 0 | 2 | 0 | 0 | 0 | 0 | 1 | 0 | 4 | 0
CNc1ncc(-c2cncc(F)c2)nc1C [Compound G17, 2-methylamino-3-methyl-5-(5-fluoropyrid-3-yl)pyrazine] | 0 | 0 | 0 | 0 | 0 | 0 | 0 | 0 | 1 | 0 | 1 | 0
C=Cc1nc(-c2cncc(F)c2)cnc1N [Compound G18] | 0 | 0 | 0 | 0 | 0 | 0 | 0 | 1 | 1 | 0 | 1 | 0
CCc1nc(-c2cncc(F)c2)cnc1N [Compound G19] | 0 | 0 | 1 | 1 | 4 | 0 | 0 | 1 | 2 | 0 | 3 | 0
C[Si](C)(C)C#Cc1nc(-c2cncc(F)c2)cnc1N [Compound G20] | 0 | 0 | 0 | 0 | 0 | 0 | 0 | 1 | 0 | 0 | 0 | 1
CCCNc1ncc(-c2cncc(F)c2)nc1C(F)(F)F [Compound G23] | 1 | 0 | 2 | 1 | 3 | 0 | 0 | 1 | 4 | 1 | 4 | 0
